The source of these data is article PMC12402854 (Angewandte Chemie (International Ed. in English), 2025).

pEC50: −log10 of the molar value.

This assay has as its target T1, Xeroderma pigmentosum type B (XPB) (Homo sapiens, UniProt P19447).
T1 sequence (P19447 1-782): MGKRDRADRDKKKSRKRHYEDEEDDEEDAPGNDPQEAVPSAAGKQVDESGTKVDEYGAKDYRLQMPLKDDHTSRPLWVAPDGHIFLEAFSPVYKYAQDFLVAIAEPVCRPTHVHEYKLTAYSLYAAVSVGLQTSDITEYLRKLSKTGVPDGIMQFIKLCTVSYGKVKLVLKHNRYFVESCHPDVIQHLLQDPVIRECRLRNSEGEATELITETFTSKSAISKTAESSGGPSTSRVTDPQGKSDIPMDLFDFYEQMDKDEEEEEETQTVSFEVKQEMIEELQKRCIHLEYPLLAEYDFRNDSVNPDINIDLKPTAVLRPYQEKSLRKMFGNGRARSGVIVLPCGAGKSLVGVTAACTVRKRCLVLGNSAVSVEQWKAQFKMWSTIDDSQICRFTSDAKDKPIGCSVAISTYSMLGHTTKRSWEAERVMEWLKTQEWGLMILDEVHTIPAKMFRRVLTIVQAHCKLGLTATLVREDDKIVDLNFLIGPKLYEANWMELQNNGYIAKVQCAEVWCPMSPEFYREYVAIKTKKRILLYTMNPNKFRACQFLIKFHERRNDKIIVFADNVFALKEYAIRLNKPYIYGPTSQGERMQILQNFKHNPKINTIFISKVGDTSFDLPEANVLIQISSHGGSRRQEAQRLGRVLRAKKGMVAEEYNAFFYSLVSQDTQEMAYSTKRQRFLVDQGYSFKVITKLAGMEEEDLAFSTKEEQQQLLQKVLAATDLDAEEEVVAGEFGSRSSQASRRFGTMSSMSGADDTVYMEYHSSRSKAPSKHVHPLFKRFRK
Put plainly: live-cell covalent labelling, click to TAMRA, in-gel fluorescence. The format is cell-based.

A word on the pEC50: it is the negative decadic logarithm of the EC50, by convention in mol/L. Read a low pEC50 as a large EC50. In turn, triptolide-alkyne [TL-alk] had a pEC50 of 7.03.
